Data taken from patent publication US20260060982A1, “USE OF BTK INHIBITOR AND SINGLE-DOSE DRUG” (HUBEI BIO-PHARMACEUTICAL INDUSTRIAL TECHNOLOGICAL INSTITUTE …, priority 2023, published 2026).

Legend:
[1] = tested on: IgM-induced calcium signaling in RAMOS cells; test: Antagonism of IgM-induced calcium signaling in RAMOS cells (FLIPR); format: cell-based; details: Homo sapiens, Fluo-4D dye
Method: The specific test steps were as follows:
A. Ramos cells (ECACC) were seeded in a 384 experimental plate using cell culture medium (RPMI 1640 medium supplemented with 10% fetal bovine serum) at a density of 5×10^6 cells/mL, 20 μL per well.
C. The cell plate and the compound plate were placed into FLIPR. 10 μL was transferred from the compound plate by the FLIPR instrument and added to the cell plate. The cell plate was removed and incubated in a 37° C. incubator for 1 h.
D. One hour later, 40 μL of Fluo-4D dye (Life Technologies, formulated as 0.5× with 40 mL of HBSS and HEPES buffer) was added to the cell plate and incubated at 37° C. for 50 min.
E. 10 μL of IgM at 8×EC80 concentration was added, and the plate was read using FLIPR.
F. The IC50 results of the compounds were analyzed using EXCEL and Prism statistical software.

BTK = BTK (Homo sapiens, UniProt Q06187); test: Inhibition of BTK kinase activity (HTRF); format: biochemical
Sequence of BTK (Q06187 whole entry): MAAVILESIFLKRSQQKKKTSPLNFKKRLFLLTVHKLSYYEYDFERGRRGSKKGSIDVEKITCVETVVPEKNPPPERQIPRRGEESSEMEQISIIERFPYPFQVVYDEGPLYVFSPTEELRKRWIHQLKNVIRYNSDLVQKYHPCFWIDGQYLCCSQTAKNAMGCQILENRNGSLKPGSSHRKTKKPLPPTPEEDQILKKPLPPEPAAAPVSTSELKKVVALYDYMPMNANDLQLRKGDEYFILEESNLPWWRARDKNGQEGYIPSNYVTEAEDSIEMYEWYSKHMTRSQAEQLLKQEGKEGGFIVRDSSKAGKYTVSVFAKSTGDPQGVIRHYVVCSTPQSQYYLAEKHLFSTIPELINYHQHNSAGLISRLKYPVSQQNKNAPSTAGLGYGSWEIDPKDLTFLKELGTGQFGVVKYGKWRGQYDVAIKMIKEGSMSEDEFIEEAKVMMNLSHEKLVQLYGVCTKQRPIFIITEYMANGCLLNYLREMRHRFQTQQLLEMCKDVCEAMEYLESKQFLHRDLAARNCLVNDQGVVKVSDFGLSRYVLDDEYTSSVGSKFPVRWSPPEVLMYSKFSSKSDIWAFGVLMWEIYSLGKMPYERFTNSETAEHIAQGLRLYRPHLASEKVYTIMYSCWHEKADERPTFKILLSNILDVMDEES
Method: The specific experimental steps were as follows:
The BTK kinase/peptide mix solution was added to the assay plate at 5 μL per well, and centrifuged at 1000 rpm for 1 min. The assay plate was incubated at 23° C. for 15 min.
C. An ATP solution (3968 μL of 1.33× kinase reaction buffer and […] of 10 mM ATP) was prepared, added to the assay plate at 2.5 μL per well, and centrifuged at 1000 rpm for 1 min. The assay plate was incubated at 23° C. for 90 min.
The assay plate was incubated at 23° C. for 60 min and read on the Envision multilabel reader.
E. IC50 results were analyzed using XLFIT5 (Formula 205) from IDBS.

[2] = Phase I single-dose clinical trial, safety and tolerability; format: in vivo, human; details: compound (I) group, all doses (n = 80)
Description: In this example, 96 healthy Chinese aged 18 to 45 were recruited as subjects. The trial included 8 dose groups, each with 12 subjects, who were randomly divided into groups, 10 of whom received compound (I) capsules (i.e., the trial group) and 2 received placebo capsules (containing no compound (I), i.e., the control group or placebo group). […] The dosages involved in this example were all the amount of compound (I). Based on safety and exploration factors, the human MRSD (maximum recommended starting dose) of compound (I) capsule used in the example was set at 10 mg, and the human maximum recommended dose was set at 800 mg. A total of 8 dose groups were set up between the initial dose and the maximum dose (see Table 2 for the dose escalation scheme of the clinical trial): 10 mg, 25 mg, 50 mg, 100 mg, 200 mg, 400 mg, 600 mg, and 800 mg, and single administration safety and tolerability trials were conducted group by group.
The subjects fasted for 10 h before administration and took a single oral administration of compound (I) capsule or placebo capsule at the prescribed dose on the morning of the trial day. Water was prohibited within 2 h after the administration and food was prohibited within 4 h after the administration. Blood sample collection: 3.0 ml of venous blood was collected before administration (within 45 min) and at 10 min, 20 min, 0.5 h, 1 h, 1.5 h, 1.75 h, 2 h, 2.5 h, 3 h, 3.5 h, 4 h, 6 h, 8 h, 12 h, 16 h, 24 h, 36 h, 48 h, and 72 h after administration. Urine sample collection: Urine samples were collected before administration (within 2 h) and at 0-2 h, 2-4 h, 4-8 h, 8-12 h, 12-16 h, 16-24 h, 24-48 h, and 48-72 h after administration. Feces collection: Feces were collected before administration (within 3 days) and at 0-24 h, 24-48 h, and 48-72 h after administration.
Safety data set: including all subjects who received at least one administration and had post-administration safety data. […]

[3] = tested on: anti-DNP IgE-induced passive cutaneous anaphylaxis in BALB/c mice; test: Passive cutaneous anaphylaxis (PCA) model in mice induced with anti-DNP IgE; format: in vivo
Description: Passive cutaneous anaphylaxis test, also known as PCA reaction, is a local allergic reaction caused by antibodies that bind to the same or different animal tissues. The PCA animal model in the present disclosure was a passive sensitization model in which IgE binds to specific receptors on skin mast cells. When allergens were stimulated, local mast cells released allergic mediators, thereby increasing local vascular permeability. […] The specific steps were as follows:
The PCA model in mice was induced using anti-DNP IgE. Specifically, BALB/c mice were divided into 9 groups, namely, a normal control group (no administration, injection, or feeding of any solvent), a model group (no administration, injection, or feeding of any solvent), a prednisone group (10 mg/kg, administered for 3 consecutive days, QD (once a day), prednisone concentration of 1 mg/mL, and an administration volume of 10 mL/kg), a cetirizine group (20 mg/kg, administered for 3 consecutive days, QD, cetirizine concentration of 2 mg/mL, and an administration volume of 10 mL/kg), a low-dose group and a medium-dose group for the test substance LOU-064 (15 mg/kg and 45 mg/kg, administered for 3 consecutive days, BID (twice a day), LOU-064 concentrations of 1.5 mg/mL and 4.5 mg/mL, and an administration volume of 10 mL/kg), and a low-dose group, a medium-dose group, and a high-dose group for compound (I) (15 mg/kg, 45 mg/kg, and 90 mg/kg, administered for 3 consecutive days, BID, compound (I) concentrations of 1.5 mg/mL, 4.5 mg/mL, and 9 mg/mL, and an administration volume of 10 mL/kg), with 9 mice in each group, administered by gavage for a total of 4 days. On day 3 of the administration, anti-DNP IgE (Sigma-Aldrich) was injected into the left ears of 8 groups of mice (no normal control group), and the same volume of PBS was injected into the right ears of 8 groups and the left and right ears of the normal control group to allow it to bind to mast cells. Then, 24 hours after the fourth day of anti-DNP IgE injection, a mixed solution of antigen (DNP-HAS, Sigma) and pigment Evan's Blue (Sigma) (0.25 mL/mouse, i.v.) was injected into the tail vein (the normal control group was injected with the same volume of the mixed solution of antigen and pigment Evan's Blue). The antigen reacted with the antibody attached to the mast cells, causing a local allergic reaction, increased local vascular permeability, and pigment penetration into the tissue. The reaction intensity was determined by measuring the local pigment content 30 minutes later. The dye was extracted from the left and right ears, and the absorbance of Evan's blue was measured at a specific wavelength. […] The efficacy effects of each test substances in the PCA animal model were evaluated.

C=CC(=O)N1CCC[C@@H](n2nc(-c3ccc(Oc4ccccn4)cc3)c3c(N)n[nH]c(=O)c32)C1 [compound (I), (R)-1-(1-acryloylpiperidin-3-yl)-4-amino-3-(4-(pyridin-2-yloxy)phenyl)-1H-pyrazolo[3,4-d]pyridazin-7(6H)-one]
IC50 [1]: 55 ± 3.34 nM | IC50 (BTK): ≤ 4 nM | subjects with TEAEs [2]: 25 | subjects with TEAEs, share [2]: 31.3% | treatment-emergent adverse events (TEAE), number of events [2]: 35 | Concentration of Evan's Blue, Left ear, Average value ([3]; 15 mg/kg BID by gavage): 25.68 µg/mL | Concentration of Evan's Blue, Left ear, Average value ([3]; 45 mg/kg BID by gavage): 18.21 µg/mL | Concentration of Evan's Blue, Left ear, Average value ([3]; 90 mg/kg BID by gavage): 22.00 µg/mL | Evan's Blue content in the modeling ear compared with the model group ([3]; three dose groups (15, 45, 90 mg/kg BID)): significantly reduced
